The results in this text go back to patent US20020006958A1, “Substituted aminosalicylic acid amides with fungicidal effect and intermediate products for production thereof” (priority 1997, published 2002).

A short description of the data set: HPLC logP determination. It counts as physicochemical. Conditions: stated in the preparation examples.

`Nc1ccc(Oc2cc(Cl)ncn2)cc1` [XI-1, 4-(4-aminophenoxy)-6-chloro-pyrimidine]: the chromatographic logP – broadly, a lipophilicity value derived from retention on a column – is 0.65.

Compound `O=C(Nc1ccc(Oc2ncnc(Oc3ccccc3)c2F)cc1)c1cccc([N+](=O)[O-])c1OCc1ccccc1` [Example V-1, 2-benzyloxy-N-[4-(5-fluoro-6-phenoxy-pyrimidin-4-yloxy)-phenyl]-3-nitro-benzamide] showed a chromatographic logP of 4.56. Compound `Nc1ccc(Oc2cc(Oc3ccccc3Cl)ncn2)cc1` [VII-a-1, 4-(4-aminophenoxy)-6-(2-chlorophenoxy)-pyrimidine] had a chromatographic logP of 1.96.

The compound `O=CNc1cccc(C(=O)Nc2ccc(Oc3ncnc(Oc4ccccc4)c3F)cc2)c1O` [Example 1, N-[4-(5-fluoro-6-phenoxy-pyrimidin-4-yloxy)-phenyl]-3-formyl-amino-2-hydroxy-benzamide] came in with a chromatographic logP of 3.31.
